Test results: US20040241243A1, “Angiogenesis promotion by prostaglandin compositions and methods” (NexMed (Holdings) Inc., priority 2003, published 2004)

Assays:
[1] = system: endothelial cells; conditions: in vitro; cited from earlier work
[2] = molecular target: EP2 receptor (Mus musculus, UniProt Q62053); conditions: read-out: affinity for the EP2 receptor; cited from earlier work
[3] = three months intracavernous injections three times a week; cited from earlier work
[4] = system: VEGF; conditions: systemic treatment of patients; cited from earlier work
[5] = three months intracavernous injections three times a week; patients completing treatment; cited from earlier work
[6] = system: segments of rat iliac arteries; assay: microvascular outgrowth from rat iliac artery ringlets cultured in Matrigel; format: cell-based, Sprague-Dawley rats
Procedure: Each sample was placed on a reduced-growth factor Matrigel coated coverglass slide in a culture dish filled with serum-free medium. […] The cultures were incubated at 37° C. in a humidified atmosphere with 5% CO2. Digital photographs were taken of growth after 96 hours.
Growth Factor Reduced Matrigel (Passaniti, A., et al., Lab. Invest. 1992 67:518-528) was purchased from Becton Dickinson (Mountain View, Calif.). Cell culture grade PGE1 was purchased from Sigma Chemical. (St. Louis, Mo.). RPIM-1640 and other cell culture reagents were purchased from GIBCO Invitrogen Corp. (Grand Island, N.Y.).
Male Sprague-Dawley rats, two-months old, were used in this study. All animal care, treatments, and procedures were approved by the institutional Committee on Animal Research. The rats were sacrificed by intraperitoneal injection of sodium pentobarbital (50 mg/kg) followed by bilateral thoracotomy and the removal of segments of iliac arteries.
The iliac artery segments isolated from Sprague-Dawley rats were sectioned into ringlets and cultured attached to Matrigel-coated glass coverslips. The coverslips were used as the supporting platform to facilitate samples processing for histological staining and examination. Coverslips were coated as follows. Growth Factor Reduced Matrigel (Becton Dickinson, Mountain View, Calif.) was diluted 3-fold in serum-free RPMI-1640 in a 35-mm culture dish on ice. The diluted Matrigel was then spread onto cold sterilized glass coverslips using a sterilized glass slide as spreader. The coated coverslips were placed in 35-mm culture dishes and incubated at 37° C. for 1 hr to allow the Matrigel to solidify. Iliac artery ringlets were placed on top of Matrigel coated coverslips and covered by 50 μl cold Growth Factor Reduced Matrigel which had been kept in liquid form. After a 5-min incubation at 37° C. to allow the Matrigel to polymerize, 3 ml of serum-free RPMI 1640 medium supplemented with 1×penicillin-streptomycin-fangizone (Cell Culture Facility, University of California, San Francisco) was added. […] The iliac artery ringlet cultures were maintained at 37 ° C. in a humidified atmosphere with 5% CO2.
After 96 hours of incubation, the iliac artery ringlet cultures were examined. Microvascular growths were photographed using a professional DCS-420 digital camera (Eastman Kodak, Rochester, N.Y.) connected to an Olympus microscope and an Apple Macintosh PowerMac computer. All samples were photographed and the images were stored for later analysis. The digital images were analyzed using ChemiImager 4000 software (Alpha Innotech Corporation, San Leandro, Calif.) to determine the maximum length of the microvascular growths.
Statistical analysis was performed using computer software from Primer of Biostatistics, 3rd ed. (Glantz SA, McGraw-Hill, Inc. New York, 1992). The data involving different time points were first analyzed by one-way analysis of variance (ANOVA). If ANOVA indicated a significant difference, the Student-Neuman-Keuls test was used to perform pair-wise comparisons.

Sequence of EP2 receptor (Q62053 whole entry): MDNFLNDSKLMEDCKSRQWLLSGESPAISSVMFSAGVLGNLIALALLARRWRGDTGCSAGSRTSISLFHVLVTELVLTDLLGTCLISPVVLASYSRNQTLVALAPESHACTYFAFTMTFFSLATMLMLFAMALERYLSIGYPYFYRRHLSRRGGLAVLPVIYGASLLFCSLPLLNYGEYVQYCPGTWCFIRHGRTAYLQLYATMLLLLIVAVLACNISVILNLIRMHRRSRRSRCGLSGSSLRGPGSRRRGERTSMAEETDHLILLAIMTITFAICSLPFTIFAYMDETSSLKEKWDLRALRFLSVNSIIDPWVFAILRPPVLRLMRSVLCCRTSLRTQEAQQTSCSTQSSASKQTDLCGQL

Compound | effect on VEGF [1] | Kd [2] [µM] | recovery of spontaneous erections [3] | responsiveness to oral sildenafil therapy [3] | effect on VEGF expression [4] | patients reporting recovery of spontaneous erections sufficient for intercourse [5] | peak microvascular growth ([6]; 1 μM PGE1) [micrometers] | Length of longest microvascular growth ([6]; 1 μM PGE1, 96 hours) [μm] | Length of longest microvascular growth ([6]; 10 μM PGE1, 96 hours) [μm] | Length of longest microvascular growth ([6]; 20 μM PGE1, 96 hours) [μm] | Length of longest microvascular growth ([6]; 30 μM PGE1, 96 hours) [μm] | Length of longest microvascular growth ([6]; 60 μM PGE1, 96 hours) [μm] | effect on microvascular outgrowth ([6]; primary cultures of rat iliac artery segments)
CCCCC[C@H](O)/C=C/[C@H]1[C@H](O)CC(=O)[C@@H]1C/C=C\CCCC(=O)O [PGE2, prostaglandin E2] | up-regulate VEGF | ~0.01 | – | – | – | – | – | – | – | – | – | – | –
Prostaglandin E1 [PGE1] | – | – | more likely to recover spontaneous erections | more likely to be responsive to oral sildenafil therapy | up-regulate expression of VEGF | 8 of the 12 | 680 | 680 | 360 | 100 | 30 | 5 | enhance microvascular outgrowth
